Here are results for twelve compounds from patent publication US11390609B2, “Rho-associated protein kinase inhibitor, pharmaceutical composition comprising same, and preparation method and use thereof” (BEIJING TIDE PHARMACEUTICAL CO., LTD., priority 2017, dated 2022).

Where only a bound is given, the exact number is not on record here.

The term IC50 denotes the midpoint of a concentration-inhibition curve. A higher IC50 goes with weaker potency in that assay.

In one assay the target is ROCK2 (Homo sapiens, UniProt O75116). Briefly: ROCK2 kinase IC50 assay (CISBIO HTRF KinEASE-STK S2 kit). As to conditions: incubated at room temperature for 2 hours. The class given is biochemical. The essentials: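 HTRF KinEASE-STK S2 format with recombinant ROCK2 (1.4 ng per well), STK-S2 substrate and ATP from 5× working solutions of 1.5 μM each, run 2 h at room temperature. Nine-point dilutions from 10000 nM top concentration; 665/615 nm emission ratio normalised to no-compound and no-kinase controls, curve-fitted for IC50.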
(Time-resolved FRET reads energy transfer from a long-lived donor to a nearby acceptor.)

For the next assay, the target named is ROCK1 (Homo sapiens (Human), UniProt Q13464). Briefly: ROCK1 kinase IC50 assay (biological test method similar to the ROCK2 assay). The assay is classed as biochemical. The method, boiled down: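 HTRF KinEASE-STK S2 assay with the STK-S2 biotinylated substrate and ATP, at 5× working solutions of 1.5 µM each. Kinase reaction with 9-point compound dilutions ran 2 h at room temperature, followed by 1 h streptavidin-XL665/Cryptate detection. The 665/615 nm ratio was normalised to no-compound and no-kinase wells, and IC50 was obtained by curve fitting.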
ROCK1, sequence (Q13464 whole entry, species assumed): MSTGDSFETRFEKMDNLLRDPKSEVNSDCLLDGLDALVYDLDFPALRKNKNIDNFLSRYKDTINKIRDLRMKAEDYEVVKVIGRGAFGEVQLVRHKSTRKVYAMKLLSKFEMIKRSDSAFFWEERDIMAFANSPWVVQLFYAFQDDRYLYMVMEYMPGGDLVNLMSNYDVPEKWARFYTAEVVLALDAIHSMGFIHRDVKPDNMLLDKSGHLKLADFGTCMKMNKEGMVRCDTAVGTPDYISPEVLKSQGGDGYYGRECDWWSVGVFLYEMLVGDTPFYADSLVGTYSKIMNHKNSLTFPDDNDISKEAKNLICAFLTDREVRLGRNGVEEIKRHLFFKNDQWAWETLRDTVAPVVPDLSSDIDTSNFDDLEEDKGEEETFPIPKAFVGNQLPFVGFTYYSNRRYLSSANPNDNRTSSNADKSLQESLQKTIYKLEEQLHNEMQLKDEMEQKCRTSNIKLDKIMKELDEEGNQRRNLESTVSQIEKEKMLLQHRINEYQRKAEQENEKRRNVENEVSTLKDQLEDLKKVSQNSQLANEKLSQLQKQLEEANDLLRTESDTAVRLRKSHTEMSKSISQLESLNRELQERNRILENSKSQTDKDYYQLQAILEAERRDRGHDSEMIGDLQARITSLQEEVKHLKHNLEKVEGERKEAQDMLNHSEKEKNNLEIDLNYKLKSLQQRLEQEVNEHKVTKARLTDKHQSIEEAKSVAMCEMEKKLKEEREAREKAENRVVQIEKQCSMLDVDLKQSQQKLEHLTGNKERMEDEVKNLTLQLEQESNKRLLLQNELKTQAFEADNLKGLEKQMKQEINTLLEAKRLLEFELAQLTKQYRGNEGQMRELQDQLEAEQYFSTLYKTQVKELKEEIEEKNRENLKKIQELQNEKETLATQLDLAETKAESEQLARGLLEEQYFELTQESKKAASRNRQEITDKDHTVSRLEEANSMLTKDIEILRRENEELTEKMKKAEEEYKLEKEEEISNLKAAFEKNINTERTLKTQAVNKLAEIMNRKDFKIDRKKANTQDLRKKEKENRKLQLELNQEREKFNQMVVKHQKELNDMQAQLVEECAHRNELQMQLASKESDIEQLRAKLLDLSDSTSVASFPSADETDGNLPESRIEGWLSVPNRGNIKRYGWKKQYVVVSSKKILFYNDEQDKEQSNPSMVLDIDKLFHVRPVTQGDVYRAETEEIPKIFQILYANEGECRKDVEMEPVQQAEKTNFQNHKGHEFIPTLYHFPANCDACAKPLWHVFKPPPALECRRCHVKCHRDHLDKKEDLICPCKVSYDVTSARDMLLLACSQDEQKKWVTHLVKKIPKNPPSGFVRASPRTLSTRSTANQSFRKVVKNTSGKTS

For the compound `c1cnc(-c2cc3ccc(-c4nccc(Nc5ccc(-c6cn[nH]c6)cc5)n4)cc3[nH]2)nc1` [TDI01870, N-(4-(1H-pyrazol-4-yl)phenyl)-2-(2-(pyrimidin-2-yl)-1H-indol-6-yl)pyrimidin-4-amine], the IC50 is 46 nM on ROCK2 and over 10000 nM against ROCK1.
`Cn1c(-n2ccnc2)cc2ccc(-c3nccc(Nc4ccc(-c5cn[nH]c5)cc4)n3)cc21` [TDI01876B, 2-(2-(1H-imidazol-1-yl)-1-methyl-1H-indol-6-yl)-N-(4-(1H-pyrazol-4-yl)phenyl)pyrimidin-4-amine]: the half-inhibitory concentration (IC50) on ROCK2 was 240 nM; on ROCK1, over 10000 nM.
For `c1ccc2sc(-c3cc4ccc(-c5nccc(Nc6ccc7[nH]ncc7c6)n5)cc4[nH]3)nc2c1` [TDI01881, N-(2-(2-(benzo[d]thiazol-2-yl)-1H-indol-6-yl)pyrimidin-4-yl)-1H-indazol-5-amine], the half-inhibitory concentration (IC50) was 161 nM at ROCK2 and over 10000 nM against ROCK1.
On to `O=C(NC1CCCN(c2ccncc2)C1)c1cc2ccc(-c3nccc(Nc4ccc(-c5cn[nH]c5)cc4)n3)cc2[nH]1` (stereo not drawn) [TDI01882, 6-(4-((4-(1H-pyrazol-4-yl)phenyl)-amino)-pyrimidin-2-yl)-N-(1-(pyridin-4-yl)piperidin-3-yl)-1H-indole-2-carboxamide], for which the IC50 on ROCK2 was 8 nM; against ROCK1, 139 nM.
As to `O=C(NC1CCN(c2ccncc2Cl)CC1)c1cc2ccc(-c3nccc(Nc4ccc(-c5cn[nH]c5)cc4)n3)cc2s1` [TDI01884, 6-(4-((4-(1H-pyrazol-4-yl)phenyl)-amino)-pyrimidin-2-yl)-N-(1-(3-chloropyridin-4-yl)piperidin-4-yl)benzo[b]-thiophene-2-carboxamide], the values for the IC50 against ROCK2 and against ROCK1 were 26 nM and over 10000 nM, respectively.
On to `Cn1c(C(=O)N2CC(F)(F)C2)cc2ccc(-c3nccc(Nc4ccc5[nH]ncc5c4)n3)cc21` [TDI01906, (6-(4-((1H-indazol-5-yl)amino)pyrimidin-2-yl)-1-methyl-1H-indol-2-yl)(3,3-difluoroazetidin-1-yl)methanone], for which the IC50 on ROCK2 is 49 nM; at ROCK1 it was over 10000 nM.
As to `COc1cc(Nc2ccnc(-c3ccc4cc(C(=O)N5CC(F)(F)C5)n(C)c4c3)n2)ccc1-c1cn[nH]c1` [TDI01910, (3,3-difluoroazetidin-1-yl)(6-(4-((3-methoxy-4-(1H-pyrazol-4-yl)phenyl)amino)pyrimidin-2-yl)-1-methyl-1H-indol-2-yl)methanone], the 50% inhibitory concentration (IC50) on ROCK2 is 6 nM; at ROCK1, over 10000 nM.
The corresponding values for `COc1cc(Nc2ccnc(-c3ccc4cc(-c5nccs5)[nH]c4c3)n2)ccc1-c1cn[nH]c1` [TDI01912, N-(3-methoxy-4-(1H-pyrazol-4-yl)phenyl)-2-(2-(thiazol-2-yl)-1H-indol-6-yl)pyrimidin-4-amine] are 44 nM and over 10000 nM.
For the compound `COc1cnc(-c2ccc3cc(C(=O)N4CC(F)(F)C4)n(C)c3c2)nc1Nc1ccc(-c2cn[nH]c2)cc1` [TDI01915, (6-(4-((4-(1H-pyrazol-4-yl)phenyl)amino)-5-methoxypyrimidin-2-yl)-1-methyl-1H-indol-2-yl)(3,3-difluoroazetidin-1-yl)methanone], the 50% inhibitory concentration (IC50) was 18 nM against ROCK2 and over 10000 nM on ROCK1.
Consider `Cn1c(C(=O)N2CC(F)(F)C2)cc2ccc(-c3nc(Nc4ccc(-c5cn[nH]c5)cc4)c4ccccc4n3)cc21` [TDI01918, (6-(4-((4-(1H-pyrazol-4-yl)phenyl)amino)quinazolin-2-yl)-1-methyl-1H-indol-2-yl)(3,3-difluoroazetidin-1-yl)methanone], for which the figures for the concentration for half-maximal inhibition (IC50) on ROCK2 and against ROCK1 were 165 nM and over 10000 nM, respectively.
With `Cn1c(-c2nccs2)cc2ccc(-c3nccc(Nc4ccc(-c5cn[nH]c5)cc4)n3)cc21` [TDI01919], the half-maximal inhibitory concentration (IC50) against ROCK2 turned out to be 62 nM; against ROCK1 it was 4060 nM.
As for `COCn1c(C(=O)N2CC(F)(F)C2)cc2ccc(-c3nccc(Nc4ccc(-c5cn[nH]c5)cc4)n3)cc21` [TDI01920, (6-(4-((4-(1H-pyrazol-4-yl)phenyl)amino)pyrimidin-2-yl)-1-(methoxymethyl)-1H-indol-2-yl)(3,3-difluoroazetidin-1-yl)methanone], the IC50 was 200 nM against ROCK2 and over 10000 nM against ROCK1.
